In US12605442B2 (priority 2020, dated 2026):
“Also recorded” adds a separate entry of the source.

Key:
[1] = tested on: lentivirus; experiment: lentivirus inactivation by photosensitizer and UV light
[2] = tested on: recombinant adeno-associated virus (AAV); conditions: reagent alone, room temperature, 2 hours
[3] = tested on: recombinant AAV; experiment: AAV particle size by dynamic light scattering; assay type: physicochemical
[4] = rats
[5] = tested on: MERS CoV; conditions: riboflavin 50 micromolar and UV light, six minutes, plasma; cited from earlier work
[6] = tested on: SARS-CoV-2; experiment: SARS-CoV-2 inactivation in Mirasol device; conditions: 50 μM riboflavin

Row | SMILES | time to inactivation of lentivirus ([1]; 1.5 mM psoralen and UV light) | infectious titer of recombinant AAV [2] | change in particle size distribution ([3]; 1.5 mM psoralen and UV light) | time to complete inactivation of lentivirus ([1]; 50 μM riboflavin in the presence of UV light) [min] | average hydrodynamic radius of viral aggregates ([3]; 50 μM riboflavin and UV light, later time points) | toxicity of residual riboflavin remaining after viral inactivation [4] | MERS coronavirus titers [5] | Log Reduction in viral titer ([6]; 100 Joules UV in 19 seconds, 100 mLs, limit of detection 1.0 Log per mL) | inactivation of SARS-CoV-2 ([6]; about 100 Joules UV, to the limit of detection)
1 | O=c1ccc2cc3ccoc3cc2o1 [psoralen] | approximately 2 hours | reduce the infectious titer | No significant change in particle size distribution |  |  |  |  |  | 
2 | Cc1cc2nc3c(=O)[nH]c(=O)nc-3n(C[C@H](O)[C@H](O)[C@H](O)CO)c2cc1C [riboflavin] |  | reduce the infectious titer |  | ≤ 20 | greater than 60 nm | does not induce toxicity | reduction | greater than 4.2 Log | Complete inactivation; also recorded: completely inactivated
